This is an account of results in patent US5118681A (priority 1989, dated 1992).

Test [1] has as its system Pellicularia filamentosa (f. sp. sasiki). Nature of the test: whole plant or invertebrate. Particulars: 120 h; read-out: % control RSB. Type of test: in vivo.
The subject of a further test is Pseudomonas fluorescens. Put plainly: Minimum Inhibitory Concentration Test, alternate (Table 4), Ps.fl. In kind it is cell-based. Particulars: Pseudomonas fluorescens, TSB, 72 hours, 30° C. The procedure:
(§1) A 125 μl aliquot of 10,000 ppm test compound in acetone was added to 4.88 ml of TSB to provide a 250 ppm solution. From this solution, 100 μL was transferred to the first row of two microtiter plate columns. Both replicates and five additional compounds were all serially diluted 1:1 to a final concentration of 0.8 ppm in TSB.
(§2) Inoculation was accomplished by diluting a 24 hr Ps fl culture, four mls per 36 mls of phosphate buffer solution. A Dynatech autoinoculator was used to transfer 1.5 μl of this cell suspension to the microtiter plates. The plates were incubated at 30° C. for 3 days before the lowest concentration at which no growth occurs was recorded in the database. The SOK data and MIC test data on Ps.fl, Ps.ae, E.c, and S.a. bacteria and Candida albicans (C.alb), A.n and A.p fungi are listed in Table 4.

In test [2] the test system is Pseudoperonospora cubensis. Nature of the test: whole plant or invertebrate. Type of test: in vivo. The settings on record: Pseudoperonospora cubensis, in Cucumis sativus, 168 h; read-out: % control CDM.
The test system of test [3] is Erysiphe graminis (f. sp. tritici). Nature of the test: whole plant or invertebrate. Type of test: in vivo. Particulars: Blumeria graminis; read-out: % control WPM.
Another test concerns Piricularia oryzae. Nature of the test: whole plant or invertebrate. In kind it is in vivo. The settings on record: Pyricularia oryzae, read-out: % control RB.
Test [4] relates to Puccinia recondita (f. sp. tritici Races PKB and PLD). Nature of the test: whole plant or invertebrate. In kind it is in vivo.
The next test concerns A.n. Put plainly: Minimum Inhibitory Concentration Test, alternate (Table 4), A.n. In kind it is cell-based, Aspergillus niger. The settings on record: Aspergillus niger, TSB, 72 hours. The procedure:
as §1, §2

In the next test the test system is Phytophthora infestans. Put plainly: whole plant or invertebrate. The settings on record: Phytophthora infestans, in Solanum lycopersicum, 96 h, read-out: % control TLB. In kind it is in vivo.
Where [5] appears, read: Puccinia recondita, 240 h; read-out: % control WLR.

The structures appear in SMILES notation. ≈ marks a conversion by molar mass, not a printed value. Where two headings read alike, the source gives them in different places.

In the case of `CCCCCCCCCCNC(=O)C(S/C=C\C(=O)NCCCCCCCC)C(=O)OCC` (stereo not drawn) [Example 26, N-n-octyl-cis-3-[2-(ethyl-N-n-decylmalonamido)thio]acrylamide], the pest or weed control at 200 ppm in test [1] was 0%; in test [2], 100%; in test [3], 50%; in the test on Piricularia oryzae, 50%; in test [4] (setting [5]), 75%; in the test with Phytophthora infestans it was 80%. Moreover, the MIC in the test on Pseudomonas fluorescens and against A.n was more than 500 µg/mL in each case.
`CCCCCCCCNC(=O)/C=C\SC(C(C)=O)C(=O)Nc1ccccc1` (stereo not drawn) [Example 31, N-n-octyl-cis-3-[2-(N-phenylacetoacetamido)thio]acrylamide]: the pest or weed control at 200 ppm in test [1] is 0%; in test [2], 100%; in test [3], 0%; with Piricularia oryzae, 95%; in test [4] (setting [5]), 50%; in the test with Phytophthora infestans, 95%. In addition, the MIC in the test on Pseudomonas fluorescens worked out at 500 µg/mL (≈ 1280 µM); with A.n, 250 µg/mL (≈ 640 µM).
On to `CCCCCCCCNC(=O)/C=C\SC(C(=O)NCc1cccc(OC)c1)C(=O)OCC` (stereo not drawn) [Example 32, N-n-octyl-cis-3-{2-[ethyl-N-(3-methoxybenzyl)malonamido]thio}acrylamide], for which the pest or weed control at 200 ppm in test [1] amounted to 0%; in test [2] it was 99%; in test [3], 0%; with Piricularia oryzae, 95%; in test [4] (setting [5]), 75%; with Phytophthora infestans it was 100%. The MIC with Pseudomonas fluorescens was more than 500 µg/mL; against A.n, 500 µg/mL (≈ 1080 µM).
For the molecule `CCCCCCCCNC(=O)/C=C\SC(C(=O)NCc1ccc(C)cc1)C(=O)OCC` (stereo not drawn) [Example 33, N-n-octyl-cis-3-{2-[ethyl-N-(4-methylbenzyl)malonamido]thio}acrylamide], the pest or weed control at 200 ppm in test [1] was 0%; in test [2] it was 99%; in test [3] it was 0%; in the test with Piricularia oryzae it was 90%; in test [4] (setting [5]) it was 0%; in the test on Phytophthora infestans it was 95%. In addition, the figures for the MIC with Pseudomonas fluorescens and against A.n were more than 500 µg/mL and 250 to 500 µg/mL (≈ 557 to 1110 µM), respectively.
On to `CCCCCCCCNC(=O)/C=C\SC(C(=O)Nc1ccc(Cl)cc1)C(=O)OCC` (stereo not drawn) [Example 34, N-n-octyl-cis-3-{2-[ethyl-N-(4-chlorophenyl)malonamido]thio}acrylamide], for which the pest or weed control at 100 ppm in test [1] came to 0%; in test [2], 85%; in test [3] it was 50%; in the test on Piricularia oryzae, 0%; in test [4] (setting [5]), 50%; with Phytophthora infestans it was 50%. The MIC in the test with Pseudomonas fluorescens and against A.n was more than 500 µg/mL each time.
On to `CCCCCCCCNC(=O)/C=C\SC(C(=O)NCc1ccccc1Cl)C(=O)OCC` (stereo not drawn) [Example 38, N-n-octyl-cis-3-{2-[ethyl-N-(2-chlorobenzyl)malonamido]thio}acrylamide], for which the pest or weed control at 100 ppm amounted to 0% in test [1]; 99% in test [2]; 0% in test [3]; 50% in the test with Piricularia oryzae; 0% in test [4] (setting [5]); 95% in the test on Phytophthora infestans. Moreover, the values for the MIC in the test with Pseudomonas fluorescens and against A.n were more than 500 µg/mL and 125 to 250 µg/mL (≈ 266 to 533 µM), respectively.
For `CCCCCCCCNC(=O)/C=C\SC(C(=O)Nc1cccc(Cl)c1C)C(=O)OCC` (stereo not drawn) [Example 39, N-n-octyl-cis-3-{2-[ethyl-N-(2-methyl-3-chlorophenyl)malonamido]thio}acrylamide], the pest or weed control at 100 ppm is 0% in test [1]; 100% in test [2]; 50% in test [3]; 50% in the test on Piricularia oryzae; 75% in test [4] (setting [5]); 100% in the test on Phytophthora infestans. Moreover, the MIC in the test with Pseudomonas fluorescens was more than 500 µg/mL; against A.n, 500 µg/mL (≈ 1070 µM).
In the case of `CCCCCCCCNC(=O)/C=C\SC(C(=O)NCc1cccc(C)c1)C(=O)OCC` (stereo not drawn) [Example 40, N-n-octyl-cis-3-{2-[ethyl-N-(3-methylbenzyl)malonamido]thio}acrylamide], the pest or weed control at 100 ppm turned out to be 0% in test [1]; 99% in test [2]; 0% in test [3]; 50% in the test on Piricularia oryzae; 75% in test [4] (Puccinia recondita, 240 h, read-out: % control WLR); 100% in the test with Phytophthora infestans. Also, the values for the minimum inhibitory concentration (MIC) with Pseudomonas fluorescens and against A.n were more than 500 µg/mL and 125 to 250 µg/mL (≈ 279 to 557 µM), respectively.
As to `CCCCCCCCNC(=O)/C=C\SC(C(=O)Nc1ccc(Cl)c(Cl)c1)C(=O)OCC` (stereo not drawn) [Example 52, N-n-octyl-cis-3-{2-[ethyl-N-(3,4-dichlorophenyl)malonamido]thio}acrylamide], the pest or weed control at 100 ppm in test [1] was 0%; in test [2], 99%; in test [3] it was 0%; with Piricularia oryzae it was 80%; in test [4] (setting [5]), 0%; with Phytophthora infestans, 80%. Further, the MIC with Pseudomonas fluorescens and with A.n was more than 500 µg/mL throughout.
`CCCCCCCCNC(=O)/C=C\SC(C(=O)Nc1cc(Cl)cc(Cl)c1)C(=O)OCC` (stereo not drawn) [Example 55, N-n-octyl-cis-3-{2-[ethyl-N-(3,5-dichlorophenyl)malonamido]thio}acrylamide]: the pest or weed control at 100 ppm amounted to 0% in test [1]; 85% in test [2]; 50% in test [3]; 95% in the test with Piricularia oryzae; 0% in test [4] (setting [5]); 80% with Phytophthora infestans. For the same molecule, the MIC against Pseudomonas fluorescens and against A.n was more than 500 µg/mL throughout.
With `CCCCCCCCNC(=O)/C=C\SC(C(=O)NCc1ccccc1OC)C(=O)OCC` (stereo not drawn) [Example 56, N-n-octyl-cis-3-{2-[ethyl-N-(2-methoxybenzyl)malonamido]thio}acrylamide], the pest or weed control at 100 ppm in test [1] was 0%; in test [2], 100%; in test [3] it was 0%; in the test on Piricularia oryzae, 90%; in test [4] (setting [5]), 0%; in the test with Phytophthora infestans, 80%. Besides, the MIC was more than 500 µg/mL with Pseudomonas fluorescens and 250 µg/mL (≈ 538 µM) against A.n.
Regarding `CCCCCCCCNC(=O)/C=C\SC(C(C)=O)C(=O)Nc1ccccc1C` (stereo not drawn) [Example 57, N-n-octyl-cis-3-{2-[N-(2-methylphenyl)acetoacetamido]thio}acrylamide], the pest or weed control at 100 ppm in test [1] amounted to 100%; in test [2] it was 0%; in test [3], 50%; in the test on Piricularia oryzae, 80%; in test [4] (setting [5]), 0%; in the test on Phytophthora infestans it was 0%. In addition, the MIC in the test on Pseudomonas fluorescens is more than 500 µg/mL; in the test with A.n it was 250 µg/mL (≈ 618 µM).
`CCCCCCCCNC(=O)/C=C\SC(C(=O)Nc1ccc(OC)cc1)C(=O)OCC` (stereo not drawn) [Example 58, N-n-octyl-cis-3-{2-[ethyl-N-(4-methoxyphenyl)malonamido]thio}acrylamide]: the pest or weed control at 100 ppm in test [1] worked out at 0%; in test [2], 100%; in test [3], 0%; in the test on Piricularia oryzae, 0%; in test [4] (setting [5]) it was 0%; with Phytophthora infestans, 0%. For the same molecule, the MIC against Pseudomonas fluorescens is more than 500 µg/mL; against A.n, 250 µg/mL (≈ 555 µM).
